We go through one molecule from PubChem BioAssay AID1671438.

Structures are written as SMILES.

This assay concerns the target Tyrosine-protein kinase Yes (Homo sapiens) (UniProt P07947). The assay is described as follows: inhibitors of human YES1 tyrosine kinase activity – biochemical, Z'-LYTE, FRET readout, direct format, dose response (AID 1671438). To be noted: recombinant YES1.

Chain of Tyrosine-protein kinase Yes (Homo sapiens) (P07947 whole entry, looked up): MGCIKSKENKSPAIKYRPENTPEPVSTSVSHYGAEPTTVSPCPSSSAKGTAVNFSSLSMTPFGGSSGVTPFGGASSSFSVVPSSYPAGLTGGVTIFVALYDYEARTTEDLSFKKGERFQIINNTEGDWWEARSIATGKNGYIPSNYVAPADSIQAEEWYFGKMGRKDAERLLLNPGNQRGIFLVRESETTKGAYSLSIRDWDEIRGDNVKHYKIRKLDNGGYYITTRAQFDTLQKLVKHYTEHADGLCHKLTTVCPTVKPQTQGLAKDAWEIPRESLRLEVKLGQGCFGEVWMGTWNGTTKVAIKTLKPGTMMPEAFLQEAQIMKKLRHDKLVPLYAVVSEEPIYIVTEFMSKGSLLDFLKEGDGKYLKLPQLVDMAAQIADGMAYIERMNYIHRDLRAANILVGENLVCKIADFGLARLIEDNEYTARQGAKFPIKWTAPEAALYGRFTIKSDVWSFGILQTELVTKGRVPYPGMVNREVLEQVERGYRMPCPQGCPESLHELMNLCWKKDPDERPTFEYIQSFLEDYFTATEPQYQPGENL

`COc1cc2ncnc(Nc3cccc(Cl)c3)c2cc1OC`: the IC50 – broadly, the concentration that gives 50% inhibition – is 924 nM.
